{
  "source": "patent US20210332139A1",
  "about": "“MODULATION OF LEUKOCYTE ACTIVITY IN TREATMENT OF NEUROINFLAMMATORY DEGENERATIVE DISEASE” (Leuvas Therapeutics, priority 2013, published 2021)",
  "type_in_all_cases": "cell-based",
  "key": {"human neutrophils [1]": {"test_system": "human neutrophils", "experiment": "Rapid adhesion of human neutrophils to fibrinogen and ICAM-1", "details": "0.1 μM, mean+/−SD", "excerpt": "(§1) All data are expressed as the mean+/−SD of bound cells in 0.2 mm^2 from three independent experiments made in duplicate."}, "mouse neutrophils [2]": {"test_system": "mouse neutrophils", "experiment": "Rapid adhesion of mouse neutrophils to fibrinogen and ICAM-1", "details": "fMLP 1 μM, mean+/−SD", "excerpt": "as §1"}, "neutrophils": {"test_system": "neutrophils", "experiment": "Rapid adhesion of neutrophils, soluble versus fibrillary Aβ1-42", "details": "fMLP, concentration not given, mean+/−SD", "excerpt": "Although two-times less efficient than the soluble form, fibrillary Aβ triggered a significant increase of rapid neutrophil adhesion on both ICAM-1 and fibrinogen (Table 8; data are expressed as the mean+/−SD of bound cells in 0.2 mm^2 from three independent experiments made in duplicate)."}, "human neutrophils [3]": {"test_system": "human neutrophils", "experiment": "Rapid human neutrophil adhesion to ICAM-1, inhibition by bocMLF and PTx", "details": "0.1 μM fMLP", "experimental": "It is known that one of the receptors for Aβ is the receptor for fMLP, formylpeptide chemotactic receptor (FPR). To evaluate the contribution of this GPCR receptor on Aβ-dependent neutrophil adhesion, we inhibited its function using boc-MLF, a formyl-peptide chemotactic receptor antagonist. Human neutrophils were incubated for 2 minutes with buffer (control) or with oligomeric Aβ. 0.1 μM fMLP was used as a positive control. Values are expressed as the mean counts of bound cells in 0.2 mm^2 from three independent experiments in duplicate. Error bars represent SD. […] To exclude the possibility that rapid adhesion triggering was a consequence of a generic plasma membrane alteration due to the lipophilic nature of Aβ, we evaluated rapid adhesion in lymphocytes, which are known to lack fMLP receptors."}, "LFA-1": {"test_system": "LFA-1", "experiment": "LFA-1 affinity state in human neutrophils (conformer-specific antibodies, cytofluorimetry)", "details": "0.1 μM, 10 s, mean fluorescence intensity, ctrl = 1", "excerpt": "Neutrophil arrest is rapidly triggered by chemokines or other chemoattractants and is mediated by the binding of LFA-1 integrin to its vascular ligand ICAM-1. Ligation of specific heterotrimeric GPCRs by chemokines induces integrins to undergo a dramatic transition from a bent low-affinity conformation to extended intermediate- and high-affinity conformations, which leads to opening of the ligand-binding pocket. We hypothesized that Aβ may trigger intermediate and/or high affinity state of LFA-1 integrin and studied the effect of Aβ1-42 oligomers on human LFA-1 affinity using KIM127 and 327A conformer-specific antibodies for intermediate- and high-affinity state respectively.\nThe cells were stimulated for 10 s with 0.5 μmol/L of CXCL12, 0.1 μM fMLP, 20 μM Aβ1-42, or 20 μM Aβ42-1 under stirring at 37° C. After rapid washing, cells were stained with FITC-conjugated secondary polyclonal antibody and analyzed by cytofluorimetric quantification. Data are mean fluorescence intensity +/−SD from three independent experiments."}, "human neutrophils [4]": {"test_system": "human neutrophils", "experiment": "Isoluminol chemiluminescence ROS assay, human neutrophils", "details": "human neutrophils on fibrinogen, mean+/−SD", "experimental": "One of the mechanisms of neuronal damage by beta-amyloid in Alzheimer's disease is the generation of reactive oxygen species (ROS). We determined whether Aβ1-42 oligomers induce ROS production in neutrophils by using a chemiluminescence assay.\n(§2) Isoluminol-based chemiluminescence assays were performed in HGCa in the presence of horseradish peroxidase (HRP) and isoluminol (both from Sigma-Aldrich) in a temperature-controlled Multilabel Count Victor X5 (Perkin Elmer). Assays were run in dark 96 well plates precoated with 250 μg/ml human fibrinogen in HGCa containing (final concentration): 100 μM isoluminol and 8 U/ml HRP. After addition of 1×10^5 human neutrophils or 7.5×10^5 mouse neutrophils, plates were left at 37° C. for 5-10 min and the reaction started by addition of the stimulus. Light emission was recorded every minute.\n(§3) We used the chemotactic peptide fMLP as positive control. […] Data are mean+/−SD for three independent experiments."}, "mouse neutrophils [5]": {"test_system": "mouse neutrophils", "experiment": "Isoluminol chemiluminescence ROS assay, mouse neutrophils", "details": "mean+/−SD", "experimental": "as §2, §3\nData are mean+/−SD counts per second."}, "human primary PMNs": {"test_system": "human primary PMNs", "experiment": "Static adhesion of human primary PMNs to ICAM-1 with signaling inhibitors", "details": "50 nM fMLP, 1 min", "experimental": "As a model system, human primary PMNs were isolated form healthy donors stimulated to very rapid adhesion to purified human ICAM-1, ligand for the β2 integrins LFA-1 and Maci. fMLP (the classical chemoattractant) was the positive control. […] PMNs were treated for 30 min. with different concentrations of inhibitors followed by stimulation for 1 min with 50 nM fMLP or with 10 μM Aβ. The number of adherent cells was quantified by computer-assisted evaluation. Statistical analysis was SD."}},
  "note": "Where “and” joins values, the source holds several entries; their conditions need not be identical. Identical values can stand only once.",
  "data": [
    {"substance": "fMLP", "values": [
      {"measurement": "Rapid adhesion to Fibrinogen", "setting": "human neutrophils [1]", "value": "361.5 ± 88.2", "unit": "bound cells in 0.2 mm^2"},
      {"measurement": "Rapid adhesion to ICAM-1", "setting": "human neutrophils [1]", "value": "203.8 ± 29.2", "unit": "bound cells in 0.2 mm^2"},
      {"measurement": "Rapid adhesion to Fibrinogen", "setting": "mouse neutrophils [2]", "value": "72.40 ± 14.33", "unit": "bound cells in 0.2 mm^2"},
      {"measurement": "Rapid adhesion to ICAM-1", "setting": "mouse neutrophils [2]", "value": "183.6 ± 23.9", "unit": "bound cells in 0.2 mm^2"},
      {"measurement": "Rapid adhesion to Fibrinogen", "setting": "neutrophils", "value": "285.5 ± 14.6", "unit": "bound cells in 0.2 mm^2"},
      {"measurement": "Rapid adhesion to ICAM-1", "setting": "neutrophils", "value": "578.5 ± 66.5", "unit": "bound cells in 0.2 mm^2"},
      {"measurement": "Neutrophil adhesion to ICAM-1, stimulus alone (Ctrl, no inhibitor)", "setting": "human neutrophils [3]", "value": "497.1 ± 33.3 bound cells in 0.2 mm^2 and 484.1 ± 39.7 bound cells in 0.2 mm^2"},
      {"measurement": "327A (high-affinity state of LFA-1)", "setting": "LFA-1", "value": "4.35 ± 0.63"},
      {"measurement": "KIM127 (intermediate-affinity state of LFA-1)", "setting": "LFA-1", "value": "2.94 ± 0.21"},
      {"measurement": "ROS generation (chemiluminescence)", "setting": "human neutrophils [4]; 1 min", "value": "908 ± 137"},
      {"measurement": "ROS generation (chemiluminescence)", "setting": "human neutrophils [4]; 2 min", "value": "783 ± 108"},
      {"measurement": "ROS generation (chemiluminescence)", "setting": "human neutrophils [4]; 3 min", "value": "515 ± 103"},
      {"measurement": "ROS generation (chemiluminescence)", "setting": "human neutrophils [4]; 4 min", "value": "325 ± 158"},
      {"measurement": "ROS generation (chemiluminescence)", "setting": "human neutrophils [4]; 5 min", "value": "272 ± 134"},
      {"measurement": "ROS generation (chemiluminescence)", "setting": "mouse neutrophils [5]; 1 min", "value": "599 ± 199", "unit": "counts per second"},
      {"measurement": "ROS generation (chemiluminescence)", "setting": "mouse neutrophils [5]; 2 min", "value": "231 ± 91", "unit": "counts per second"},
      {"measurement": "ROS generation (chemiluminescence)", "setting": "mouse neutrophils [5]; 3 min", "value": "90 ± 17", "unit": "counts per second"},
      {"measurement": "ROS generation (chemiluminescence)", "setting": "mouse neutrophils [5]; 4 min", "value": "65 ± 36", "unit": "counts per second"},
      {"measurement": "ROS generation (chemiluminescence)", "setting": "mouse neutrophils [5]; 5 min", "value": "59 ± 54", "unit": "counts per second"},
      {"measurement": "Adherent hPMNs to ICAM-1, fMLP, Mean, Control (no inhibitor)", "setting": "human primary PMNs", "value": "444.6 and 500.8 and 433.5 and 463.1 and 484.1 and 486.8"}
    ]}
  ]
}
